Experimental data: ChEMBL document CHEMBL5316357, “Discovery of Linvencorvir (RG7907), a Hepatitis B Virus Core Protein Allosteric Modulator, for the Treatment of Chronic HBV Infection” (J Med Chem, 2023)

Tests used:
Hepatitis B virus = test: Antiviral activity against HBV stably transfected in human HepG2.2.15 cells assessed as reduction of HBV DNA replication incubated for 5 days by q-PCR analysis; type: functional, organism-based; conditions: HepG2 2.2.15, 120 h
[1] = Clearance in human liver microsomes at 1 uM measured upto 30 mins in presence of NADPH by LC-MS/MS analysis; type: ADME, Microsome
[2] = Cytotoxicity against human HepDE19 cells assessed as reduction in cell viability incubated for 5 days by CCK-8 assay; type: functional; conditions: HepDE19, 120 h, time 5 day
[3] = Induction of CYP3A4 mRNA expression level in human hepatocytes at 10 uM incubated for 24 hrs by q-PCR analysis; type: ADME, cell-based, Hepatocyte
[4] = biological target: Voltage-gated inwardly rectifying potassium channel KCNH2 (Homo sapiens, UniProt Q12809); test: (§1) Inhibition of hERG stably expressed in CHO cells by whole-cell voltage-clamp assay; type: toxicity, cell-based
Sequence of Voltage-gated inwardly rectifying potassium channel KCNH2 (Q12809 whole entry): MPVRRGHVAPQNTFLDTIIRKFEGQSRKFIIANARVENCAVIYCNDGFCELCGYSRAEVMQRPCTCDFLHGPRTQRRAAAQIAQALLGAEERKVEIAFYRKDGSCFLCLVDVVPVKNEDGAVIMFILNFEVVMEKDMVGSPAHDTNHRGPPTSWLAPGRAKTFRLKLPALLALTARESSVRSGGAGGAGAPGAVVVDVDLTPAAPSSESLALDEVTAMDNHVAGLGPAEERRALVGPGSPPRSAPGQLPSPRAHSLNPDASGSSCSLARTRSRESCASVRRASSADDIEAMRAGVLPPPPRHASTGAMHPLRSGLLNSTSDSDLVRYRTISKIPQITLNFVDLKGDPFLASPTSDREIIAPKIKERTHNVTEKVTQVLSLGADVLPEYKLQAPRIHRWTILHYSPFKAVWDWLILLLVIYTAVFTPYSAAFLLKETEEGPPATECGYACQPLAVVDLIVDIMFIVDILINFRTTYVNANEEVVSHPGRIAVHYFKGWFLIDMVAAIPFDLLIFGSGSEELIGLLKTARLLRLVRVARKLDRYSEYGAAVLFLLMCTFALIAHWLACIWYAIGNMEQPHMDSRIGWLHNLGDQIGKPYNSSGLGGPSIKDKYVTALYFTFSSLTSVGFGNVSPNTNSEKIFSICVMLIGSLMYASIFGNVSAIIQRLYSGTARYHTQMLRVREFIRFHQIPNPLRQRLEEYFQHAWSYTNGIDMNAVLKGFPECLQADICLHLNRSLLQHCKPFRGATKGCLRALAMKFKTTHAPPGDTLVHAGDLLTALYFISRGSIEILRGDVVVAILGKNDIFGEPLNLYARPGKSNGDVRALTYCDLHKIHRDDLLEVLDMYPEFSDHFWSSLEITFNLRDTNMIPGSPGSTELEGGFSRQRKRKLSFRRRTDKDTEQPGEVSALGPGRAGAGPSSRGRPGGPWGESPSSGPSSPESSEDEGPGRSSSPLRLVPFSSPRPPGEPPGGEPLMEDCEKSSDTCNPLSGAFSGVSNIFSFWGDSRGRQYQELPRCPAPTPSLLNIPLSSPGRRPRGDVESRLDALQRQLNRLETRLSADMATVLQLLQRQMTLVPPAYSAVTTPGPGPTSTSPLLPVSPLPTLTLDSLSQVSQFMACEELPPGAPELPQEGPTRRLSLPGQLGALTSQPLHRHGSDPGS

hERG = hERG (Homo sapiens, UniProt Q12809); test: as §1; type: toxicity, cell-based; conditions: human, CHO cells stably expressing hERG
Sequence of hERG (Q12809 whole entry): as above

[5] = Half life in mouse plasma at 1 mg/kg,iv; type: ADME, organism-based
[6] = Volume of distribution at steady state in mouse plasma at 1 mg/kg,iv; type: ADME, organism-based; conditions: read-out: Vdss
[7] = Clearance in mouse plasma at 1 mg/kg,iv; type: ADME, organism-based
[8] = AUC (0-infinity) in mouse plasma at 1 mg/kg,iv; type: ADME, organism-based; design: dose 1 mg/kg, route iv; conditions: in vivo
[9] = AUC (0-infinity) in rat plasma at 3 mg/kg,po; type: ADME, organism-based; design: dose 3 mg/kg, route po; conditions: in vivo
[10] = AUC (0-infinity) in mouse plasma at 3 mg/kg,po; type: ADME, organism-based; design: dose 3 mg/kg, route po; conditions: in vivo
[11] = Oral bioavailability in rat plasma at 3 mg/kg; type: ADME, organism-based; conditions: in vivo, po, 3 mg/kg
[12] = Oral bioavailability in mouse plasma at 3 mg/kg; type: ADME, organism-based; conditions: in vivo
[13] = Clearance in human hepatocyte at 2 uM measured upto 120 mins by LC-MS/MS analysis; type: ADME, cell-based; conditions: hepatocytes
[14] = Clearance in rat hepatocyte at 2 uM measured upto 120 mins by LC-MS/MS analysis; type: ADME, cell-based; conditions: hepatocytes
[15] = Octanol-water partition coefficient, logD of the compound at pH 7.4; type: physicochemical

Compound | EC50 (Hepatitis B virus) [µM] | CLhep predicted at 1 µM [1] [L/h/kg] | Activity [3] [%] | CC50 [2] [µM] | also measured
COC(=O)C1=C(CN2CCN3C(=O)N([C@H]4C[C@H](C(=O)O)C4)C[C@@H]3C2)NC(c2nccs2)=N[C@H]1c1ccc(F)cc1Cl | 0.034 | – | – | 43 | –
COC(=O)C1=C(CN2CCN3C(=O)N([C@H]4C[C@@H](C(=O)O)C4)C[C@@H]3C2)NC(c2nccs2)=N[C@H]1c1ccc(F)cc1Cl | 0.03 | 0.024 | – | > 100 | –
CCOC(=O)C1=C(CN2C[C@H]3CN(C(C)(C)C)C(=O)N3C[C@H]2C(=O)O)NC(c2nccs2)=N[C@H]1c1ccc(F)cc1Cl | 0.062 | – | – | > 100 | –
CCOC(=O)C1=C(CN2C[C@H]3CN(C4CC4)C(=O)N3C[C@H]2C(=O)O)NC(c2nccs2)=N[C@H]1c1ccc(F)cc1Cl | 0.145 | 0.102 | – | > 100 | –
COC(=O)C1=C(CN2CCN3C(=O)CC[C@H]3C2)NC(c2nccs2)=N[C@H]1c1ccc(F)cc1Cl | 0.16 | – | – | 71 | –
COC(=O)C1=C(CN2CCN3C(=O)NC[C@H]3C2)NC(c2nccs2)=N[C@H]1c1ccc(F)cc1Cl | 0.15 | – | – | 89 | –
COC(=O)C1=C(CN2CCN3C(=O)COCC3C2)NC(c2nccs2)=N[C@H]1c1ccc(F)cc1Cl (stereo partly specified) | 0.055 | – | – | 68 | –
COC(=O)C1=C(CN2CCN3CCCC3C2)NC(c2nccs2)=N[C@H]1c1ccc(F)cc1Cl (stereo partly specified) | > 1 | – | – | – | –
COC(=O)C1=C(CN2CCN3C(=O)NC[C@@H]3C2)NC(c2nccs2)=N[C@H]1c1ccc(F)cc1Cl | 0.002 | – | 17 | 52 | –
COC(=O)C1=C(CN2CCN3C(=O)OC[C@H]3C2)NC(c2nccs2)=N[C@H]1c1ccc(F)cc1Cl | 0.023 | – | – | 76 | –
COC(=O)C1=C(CN2CCN3C(=O)OCCC3C2)NC(c2nccs2)=N[C@H]1c1ccc(F)cc1Cl (stereo partly specified) | 0.1 | – | – | 62 | –
CCOC(=O)C1=C(CN2C[C@H]3CN(C)C(=O)N3C[C@H]2C(=O)O)NC(c2nccs2)=N[C@H]1c1cccc(F)c1Cl | 0.15 | – | – | > 100 | –
COC(=O)C1=C(CN2CCN3C(=O)OC[C@@H]3C2)NC(c2nccs2)=N[C@H]1c1ccc(F)cc1Cl | 0.003 | – | 70 | 79 | –
COC(=O)C1=C(CN2CCN(C(C)=O)CC2)NC(c2nccs2)=N[C@H]1c1ccc(F)cc1Cl | 0.05 | – | – | > 100 | –
CCOC(=O)C1=C(CN2CCN3C(=O)N(C(C)(C)C(=O)O)C[C@@H]3C2)NC(c2nccs2)=N[C@H]1c1ccc(F)cc1Cl | 0.2 | 0.096 | – | 61 | –
COC(=O)C1=C(CN2CCc3c([nH][nH]c3=O)C2)NC(c2nccs2)=N[C@H]1c1ccc(F)cc1Cl | 0.75 | – | 13 | > 100 | –

The remaining compounds from weak to strong by EC50 (Hepatitis B virus), led by results:

EC50 (Hepatitis B virus) [µM] | CLhep predicted at 1 µM [1] [L/h/kg] | Activity [3] [%] | Compound | CC50 [2] [µM] | also measured
0.03 | 0.264 | – | CCOC(=O)C1=C(CN2CCN3C(=O)N(c4ccccc4C(=O)O)C[C@@H]3C2)NC(c2nccs2)=N[C@H]1c1ccc(F)cc1Cl (single isomer, unassigned) | – | –
0.03 | 0.15 | – | COC(=O)C1=C(CN2CCN3C(=O)N(C(C)(C)CC(=O)O)C[C@@H]3C2)NC(c2nccs2)=N[C@H]1c1ccc(F)cc1Cl | > 100 | –
0.016 | 0.162 | 2.4 | CCOC(=O)C1=C(CN2CCN3C(=O)N(CC(C)C(=O)O)C[C@@H]3C2)NC(c2nccs2)=N[C@H]1c1ccc(F)cc1Cl (stereo partly specified) | > 100 | IC50 [4]: > 20 µM; IC20 (hERG): > 10 µM
0.016 | – | – | COC(=O)C1=C(CN2CCN3C(=O)N(CC(C)(C)C(=O)O)C[C@@H]3C2)NC(c2nccs2)=N[C@H]1c1cccc(F)c1C | > 100 | logD [15]: 1.26
0.014 | – | – | COC(=O)C1=C(CN2CCN3C(=O)N(CC(C)(C)C(=O)O)C[C@@H]3C2)NC(c2nccs2)=N[C@H]1c1cccc(F)c1Cl | > 100 | logD [15]: 1.21
0.014 | – | 44 | COC(=O)C1=C(CN2CCN3C(=O)CC[C@@H]3C2)NC(c2nccs2)=N[C@H]1c1ccc(F)cc1Cl | 45 | –
0.011 | 0.018 | – | COC(=O)C1=C(CN2CCN3C(=O)N(CC4(C(=O)O)CC4)C[C@@H]3C2)NC(c2nccs2)=N[C@H]1c1ccc(F)cc1Cl | > 100 | IC50 [4]: 7.8 µM; IC20 (hERG): 2.3 µM
0.011 | 0.138 | 2.2 | COC(=O)C1=C(CN2CCN3C(=O)N(CC4(C(=O)O)CCC4)C[C@@H]3C2)NC(c2nccs2)=N[C@H]1c1ccc(F)cc1Cl | > 100 | IC50 [4]: > 20 µM; IC20 (hERG): 7.2 µM
0.009 | 0.486 | 0 | COC(=O)C1=C(CN2CCN3C(=O)N(C4CCC(C(=O)O)CC4)C[C@@H]3C2)NC(c2nccs2)=N[C@H]1c1ccc(F)cc1Cl (stereo partly specified) | 70 | IC50 [4]: > 20 µM; IC20 (hERG): > 10 µM
0.009 | – | – | CCOC(=O)C1=C(CN2CCN3C(=O)N(CC(C)(C)C(=O)O)C[C@@H]3C2)NC(c2nccs2)=N[C@H]1c1ccc(F)cc1Cl | 77 | half-life [5]: 54 min; Vd [6]: 2.2 L/kg; clearance [7]: 3.48 L/h/kg; AUC [8]: 0.323 µg·h/mL; AUC [9]: 0.07 µg·h/mL; AUC [10]: 0.038 µg·h/mL; F [11]: 15.6%; F [12]: 12%; CLhep predicted at 2 µM [13]: 0.036 L/h/kg; CLhep predicted at 2 µM [14]: 1.32 L/h/kg; logD [15]: 1.67
0.009 | 0.312 | – | COC(=O)C1=C(CN2CCN3C(=O)N([C@H]4CC[C@H](C(=O)O)CC4)C[C@@H]3C2)NC(c2nccs2)=N[C@H]1c1ccc(F)cc1Cl | 43 | –
0.008 | 0.276 | 0 | COC(=O)C1=C(CN2CCN3C(=O)N(CCC(C)(C)C(=O)O)C[C@@H]3C2)NC(c2nccs2)=N[C@H]1c1ccc(F)cc1Cl | > 100 | –
0.007 | 0.018 | – | COC(=O)C1=C(CN2CCN3C(=O)N(c4cccc(C(=O)O)c4)C[C@@H]3C2)NC(c2nccs2)=N[C@H]1c1ccc(F)cc1Cl (single isomer, unassigned) | 33 | –
0.006 | 0.12 | 0.6 | COC(=O)C1=C(CN2CCN3C(=O)N(CC(C)(C)C(=O)O)C[C@@H]3C2)NC(c2nccs2)=N[C@H]1c1ccc(F)cc1Cl | > 100 | IC50 [4]: > 20 µM; IC20 (hERG): > 10 µM; AUC [9]: 0.026 µg·h/mL; F [11]: 7.1%; CLhep predicted at 2 µM [13]: 0.552 L/h/kg; CLhep predicted at 2 µM [14]: 0.84 L/h/kg; logD [15]: 1.18
0.006 | – | – | COC(=O)C1=C(CN2CCN3C(=O)N(CC(C)(C)C(=O)O)C[C@@H]3C2)NC(c2nccs2)=N[C@H]1c1ccc(F)c(F)c1C | 94 | AUC [9]: 0.043 µg·h/mL; F [11]: 14%; CLhep predicted at 2 µM [13]: 0.144 L/h/kg; CLhep predicted at 2 µM [14]: 0.96 L/h/kg; logD [15]: 1.51
0.003 | – | – | CCOC(=O)C1=C(CN2CCN3C(=O)N(CC(C)(C)C(=O)O)C[C@@H]3C2)NC(c2nccs2)=N[C@H]1c1ccc(F)c(F)c1C | > 100 | AUC [9]: 0.043 µg·h/mL; F [11]: 7.4%; logD [15]: 2
0.003 | – | 110 | COC(=O)C1=C(CN2CCOC[C@H]2C(=O)O)N=C(c2nccs2)N[C@H]1c1ccc(F)cc1Cl | > 100 | –
0.002 | – | – | CCOC(=O)C1=C(CN2CCN3C(=O)N(c4ccc(C(=O)O)cc4)C[C@@H]3C2)NC(c2nccs2)=N[C@H]1c1ccc(F)cc1Cl (single isomer, unassigned) | 28 | –
0.002 | 0.348 | 1.7 | CCOC(=O)C1=C(CN2C[C@H]3CN(C)C(=O)N3C[C@@H]2C(=O)O)NC(c2nccs2)=N[C@H]1c1cccc(F)c1Cl | > 100 | IC50 [4]: > 20 µM; IC20 (hERG): > 10 µM
0.002 | 0.162 | 6 | CCOC(=O)C1=C(CN2C[C@H]3CN(C4CC4)C(=O)N3C[C@@H]2C(=O)O)NC(c2nccs2)=N[C@H]1c1ccc(F)cc1Cl | > 100 | IC50 [4]: > 20 µM; IC20 (hERG): > 10 µM
0.002 | 0.0258 | – | COC(=O)C1=C(CN2CCN3C(=O)N(c4ccc(C(=O)O)cc4)C[C@@H]3C2)NC(c2nccs2)=N[C@H]1c1ccc(F)cc1Cl (single isomer, unassigned) | – | IC50 [4]: > 10 µM; IC20 (hERG): 4 µM
